Source: US20060280817A1, “Pharmaceutical composition useful for the treatment of hepatocellular carcinoma” (priority 2005, published 2006)

Columns and labels:
MCF-7 = test: In vitro cytotoxicity (SRB), MCF-7; assay type: cell-based; details: Homo sapiens, MCF7; MCF-7, 1 × 10^−5 M, 48 h; read-out: percent growth inhibition
Procedure: (§1) The human cancer cell lines procured from National Cancer Institute, Frederick, U.S.A or National Center for Cell Science; Pune, India. were used in present study. Cells were grown in tissue culture flasks in complete growth medium (RPMI-1640 medium with 2 mM glutamine, 100 μg/ml streptomycin, pH 7.4, sterilized by filtration and supplemented with 10% fetal calf serum and 100 units/ml penicillin before use) at 37° C. in an atmosphere of 5% CO2 and 90% relative humidity in a carbon dioxide incubator. The cells at subconfluent stage were harvested from the flask by treatment with trypsin (0.5% in PBS containing 0.02% EDTA) for determination of cytotoxicity. Cells with viability of more than 98% as determined by trypan blue exclusion were used for assay. […]
(§2) A stock solutions of (20 mg/ml) of test material were prepared in distilled water. […] In vitro cytotoxicity against human cancer cell lines was determined (Monks, A., Scudiero, D., Skehan, P., Shoemaker R., Paull, K., Vistica, D., Hose, C., Langley, j., Cronise, P., Vaigro-Wolff, A., Gray-Goodrich, M., Campbell, H., Mayo, J and Boyd, M. (1991). Feasibility of a high-flux anticancer drug screen using a diverse panel of cultured human tumor cell lines. J. Natl. Cancer Inst. 83, 757-766.) using 96-well tissue culture plates. […] The optical density (OD) was recorded on ELISA reader at 540 nm. […]

T 47 D = test: In vitro cytotoxicity (SRB), T 47 D; assay type: cell-based; details: Homo sapiens, T47D, 1 × 10^−5 M, 48 h, read-out: percent growth inhibition
Procedure: as §1, §2

ZR 75-1 = test: In vitro cytotoxicity (SRB), ZR 75-1; assay type: cell-based; details: Homo sapiens; ZR 75-1, 1 × 10^−5 M, 48 h; read-out: percent growth inhibition
Procedure: as §1, §2

IMR 32 = test: In vitro cytotoxicity (SRB), IMR 32; assay type: cell-based, human; details: IMR 32, 1 × 10^−5 M, 48 h
Procedure: as §1, §2

SK N SH = test: In vitro cytotoxicity (SRB), SK N SH; assay type: cell-based, human; details: 48 h
Procedure: (§3) The human cancer cell lines procured from National Cancer Institute, Frederick, U.S.A or National Center for Cell Science; Pune, India. were used in present study. Cells were grown in tissue culture flasks in complete growth medium (RPMI-1640 medium with 2 mM glutamine, 100 μg/ml streptomycin, pH 7.4, sterilized by filtration and supplemented with 10% fetal calf serum and 100 units/ml penicillin before use) at 37° C. in an atmosphere of 5% CO2 and 90% relative humidity in a carbon dioxide incubator. The cells at subconfluent stage were harvested from the flask by treatment with trypsin (0.5% in PBS containing 0.02% EDTA) for determination of cytotoxicity. Cells with viability of more than 98% as determined by trypan blue exclusion were used for assay. The cell suspension of the required cell density was prepared in complete growth medium with gentamycin (50 μg/ml) for determination of cytotoxicity.
(§4) A stock solutions of (20 mg/ml) of test material were prepared in distilled water. The stock solutions were serially diluted with complete growth medium containing 50 μg/ml of gentamycin to obtain working test solutions of required concentrations. In vitro cytotoxicity against human cancer cell lines was determined (Monks, A., Scudiero, D., Skehan, P., Shoemaker R., Paull, K., Vistica, D., Hose, C., Langley, j., Cronise, P., Vaigro-Wolff, A., Gray-Goodrich, M., Campbell, H., Mayo, J and Boyd, M. (1991). Feasibility of a high-flux anticancer drug screen using a diverse panel of cultured human tumor cell lines. J. Natl. Cancer Inst. 83, 757-766.) using 96-well tissue culture plates. The 100 μl of cell suspension was added to each well of the 96-well tissue culture plate. The cells were incubated for 24 hours. Test materials in complete growth medium (100 μl) were added after 24 hours incubation to the wells containing cell suspension. The plates were further incubated for 48 hours (at 37° C. in an atmosphere of […] 90% relative humidity in a carbon dioxide incubator) after addition of test material and then the cell growth was stopped by gently layering trichloroacetic acid (TCA, 50 μl, 50%) on top of the medium in all the wells. The plates were incubated at 4° C. for one hour to fix the cells attached to the bottom of the wells. The liquid of all the wells was gently pipetted out and discarded. The plates were washed five times with distilled water to remove TCA, growth medium low molecular weight metabolites, serum proteins etc and air-dried. Cell growth was measured by staining with sulforhodamine B dye (P. Skehan, R. Storeng, D. Scudiero, A. Monks, J. McMohan, D. Vistica, J. T. Warren, H. Bokesch, S. Kenney, M. R. Boyd (1990) New colorimetric cytotoxic Assay for Anticancer—Drug Screening Journal of the National Cancer Institute 82, 1107-1112). The adsorbed dye was dissolved in Tris-Buffer (100 μl, 0.01M, pH 10.4) and plates were gently stirred for 5 minutes on a mechanical stirrer. The optical density (OD) was recorded on ELISA reader at 540 nm.
(§5) The cell growth was calculated by subtracting mean OD value of respective blank from the mean OD value of experimental set. Percent growth in presence of test material was calculated considering the growth in absence of any test material as 100% and in turn percent growth inhibition in presence of test material will be calculated.
(§6) Methodology is the same as given in example 6 except for stock solutions of 1×10^−2M was prepared instead of 20 mg/ml.

SNB 78 = test: In vitro cytotoxicity (SRB), SNB 78; assay type: cell-based, human; details: SNB 78, 1 × 10^−5 M, 48 h
Procedure: as §1, §2

SW 620 = test: In vitro cytotoxicity (SRB), SW 620; assay type: cell-based, human; details: 48 h
Procedure: as §3, §4, §5, §6

HT 29 = test: In vitro cytotoxicity (SRB), HT 29; assay type: cell-based, human; details: 48 h
Procedure: as §3, §4, §5, §6

NIH OVCAR5 = test: In vitro cytotoxicity (SRB), NIH OVCAR5; assay type: cell-based; details: Homo sapiens, OVCAR-5; NIH OVCAR5, 1 × 10^−5 M, 48 h; read-out: percent growth inhibition
Procedure: as §1, §2

SiHa = test: In vitro cytotoxicity (SRB), SiHa; assay type: cell-based, human; details: 48 h
Procedure: as §3, §4, §5, §6

Colo 205 = test: In vitro cytotoxicity (SRB), Colo 205; assay type: cell-based, human; details: 48 h
Procedure: as §3, §4, §5, §6

HCT 15 = test: In vitro cytotoxicity (SRB), HCT 15; assay type: cell-based, human; details: 48 h
Procedure: as §3, §4, §5, §6

HOP-62 = test: In vitro cytotoxicity (SRB), HOP-62; assay type: cell-based, human; details: 48 h
Procedure: as §3, §4, §5, §6

KB = test: In vitro cytotoxicity (SRB), KB; assay type: cell-based, human; details: 2 × 10^−5 M, 48 h
Procedure: as §1, §2

SK N MC = test: In vitro cytotoxicity (SRB), SK N MC; assay type: cell-based; details: Homo sapiens, 1 × 10^−5 M, 48 h, read-out: percent growth inhibition
Procedure: as §1, §2

A 549 = test: In vitro cytotoxicity (SRB), A 549; assay type: cell-based, human; details: A 549, 1 × 10^−5 M, 48 h
Procedure: as §1, §2

NCI-H23 = test: In vitro cytotoxicity (SRB), NCI-H23; assay type: cell-based, human; details: NCI-H23, 1 × 10^−5 M, 48 h
Procedure: as §1, §2

NIH OVCAR 3 = test: In vitro cytotoxicity (SRB), NIH OVCAR 3; assay type: cell-based, human; details: NIH OVCAR 3, 1 × 10^−5 M, 48 h
Procedure: as §1, §2

DU 145 = test: In vitro cytotoxicity (SRB), DU 145; assay type: cell-based, human; details: DU 145, 1 × 10^−5 M, 48 h
Procedure: as §1, §2

| Structure (SMILES) | percent growth inhibition (IMR 32) [%] | percent growth inhibition (SW 620; SW 620, 1 × 10^−5 M) [%] | percent growth inhibition (HT 29; HT 29, 1 × 10^−5 M) [%] | inhibition (NIH OVCAR5) [%] | percent growth inhibition (SiHa; 1 × 10^−4 M) [%] | percent growth inhibition (SiHa; 1 × 10^−5 M) [%] | percent growth inhibition (SiHa; 1 × 10^−6 M) [%] | percent growth inhibition (SK N SH; SK N SH, 1 × 10^−5 M) [%] | percent growth inhibition (SK N SH; SK-NSH, 1 × 10^−4 M) [%] | percent growth inhibition (SK N SH; SK-NSH, 1 × 10^−6 M) [%] | percent growth inhibition (Colo 205; Colo-205, 1 × 10^−4 M) [%] | percent growth inhibition (Colo 205; Colo-205, 1 × 10^−5 M) [%] | percent growth inhibition (Colo 205; Colo-205, 1 × 10^−6 M) [%] | percent growth inhibition (SW 620; SW620, 1 × 10^−4 M) [%] | percent growth inhibition (SW 620; SW620, 1 × 10^−6 M) [%] | percent growth inhibition (HCT 15; HCT-15, 1 × 10^−4 M) [%] | percent growth inhibition (HCT 15; HCT-15, 1 × 10^−5 M) [%] | percent growth inhibition (HCT 15; HCT-15, 1 × 10^−6 M) [%] | percent growth inhibition (HT 29; HT-29, 1 × 10^−4 M) [%] | percent growth inhibition (HT 29; HT-29, 1 × 10^−6 M) [%] | other results |
| --- | --- | --- | --- | --- | --- | --- | --- | --- | --- | --- | --- | --- | --- | --- | --- | --- | --- | --- | --- | --- | --- |
| COc1cccc2c1C(=O)c1c(O)c3c(c(O)c1C2=O)C[C@@](O)(C(=O)CO)C[C@@H]3O[C@H]1C[C@H](N)[C@H](O)[C@H](C)O1 [Adriamycin] | 87 | 59 | 69 | 45 | – | – | – | – | – | – | – | – | – | – | – | – | – | – | – | – | inhibition (MCF-7): 72%; inhibition (T 47 D): 34%; inhibition (ZR 75-1): 46%; inhibition at 10 µM (SK N SH; Homo sapiens, SK N SH, 1 × 10^−5 M, read-out: percent growth inhibition): 82%; percent growth inhibition (SNB 78): 20% |
| O=C1C[C@@H](c2ccc(O)c(O[C@@H]3O[C@H](CO)[C@@H](O)[C@H](O)[C@H]3O)c2)Oc2cc(O[C@@H]3O[C@H](CO)[C@@H](O)[C@H](O)[C@H]3O)ccc21 [Butrin] | – | 0 | 11 | – | 80 | 0 | 0 | 8 | 83 | 9 | 40 | 0 | 0 | 92 | 0 | 98 | 26 | 0 | 99 | 9 | percent growth inhibition (HOP-62; HOP-62, 1 × 10^−4 M): 65%; percent growth inhibition (HOP-62; HOP-62, 1 × 10^−5 M): 6%; percent growth inhibition (HOP-62; HOP-62, 1 × 10^−6 M): 0% |
| O=c1[nH]cc(F)c(=O)[nH]1 [5-Flurouracil, reference compound] | – | – | – | – | – | – | – | – | – | – | – | – | – | – | – | – | – | – | – | – | percent growth inhibition (HCT 15; HCT 15, 2 × 10^−5 M): 50%; percent growth inhibition (KB): 9% |
| CC/C(=C(\c1ccccc1)c1ccc(OCCN(C)C)cc1)c1ccccc1 [Tamoxifen] | – | – | – | 20 | – | – | – | – | – | – | – | – | – | – | – | – | – | – | – | – | inhibition (SK N MC): 27%; percent growth inhibition (A 549): 17% |
| CO[C@@]12[C@H](COC(N)=O)C3=C(C(=O)C(C)=C(N)C3=O)N1C[C@@H]1N[C@@H]12 [Mitomycin C] | 83 | – | – | – | – | – | – | – | – | – | – | – | – | – | – | – | – | – | – | – | percent growth inhibition (NCI-H23): 59%; percent growth inhibition (NIH OVCAR 3): 31%; percent growth inhibition (DU 145): 69% |
| O=C(/C=C/c1ccc(O)c(O[C@@H]2O[C@H](CO)[C@@H](O)[C@H](O)[C@H]2O)c1)c1ccc(O[C@@H]2O[C@H](CO)[C@@H](O)[C@H](O)[C@H]2O)cc1O [Isobutrin] | – | 0 | 10 | – | 50 | 0 | 0 | 25 | 93 | 0 | 74 | 0 | 0 | 85 | 0 | 99 | 21 | 0 | 94 | 0 | percent growth inhibition (HOP-62; HOP-62, 1 × 10^−4 M): 65%; percent growth inhibition (HOP-62; HOP-62, 1 × 10^−5 M): 0%; percent growth inhibition (HOP-62; HOP-62, 1 × 10^−6 M): 0% |
